pIC50: −log10 of the molar value.
Legend:
Assay type in all cases: cell-based
wild type pre-B cells = experiment: Bioassay 9: cell cycle analysis (DNA content and BrdU)
Protocol: Pre B cells are isolated from bone marrow according to the criterion: cell surface expression of B220, CD19, but not cKit or IgM. Pre-B cells are cultured on OP9 cells with IL7 in the presence of compounds at various concentrations. The stages of the cell cycle in pre-B cells with and without treatment is analysed using flow cytometry to assay, using a stain for DNA content combined with BrdU to determine the proportion of cells in S phase.

[1] = system: mouse embryonic fibroblasts expressing KrasG12V; experiment: Bioassay 4: cumulative cell counts, KrasG12V expression; conditions: for Cumulative Cell Counts: KrasG12V
Protocol: (§1) To test if cells expressing mutant forms of RAS sensitized to senescence induction, MOZ inhibitors were combined with the ectopic expression of KRASG12V. Cells are plated in triplicate cultures at 10,204 cells/cm2 then transfected with control retroviral vectors pBABE or pBABE containing a mutant KrasG12V expression cassette. Cultures were maintained at 3% O2. Selection for transfected cells is achieved using puromycin. Compounds are tested at 0 μM 1 μM, 2.5 μM, and 5 μM. After 48 hours, cells are passaged and counted, then replated at 10,204/cm2. This procedure is continued for 336 hours. The total number of cells produced at each passage is then calculated and compared between treatment groups. Cellular senescence is determined by cell cycle arrest. Comparisons are between cells treated with vehicle only expressing the control vector, cells treated with 5 μM expressing the control vector (concentration shown in bioassay 1 to produce cellular senescence) and cells treated with 0 uM 1 μM, 2.5 μM, and 5 μM expressing the KrasV12 expressing vector vector

Cdc6 mRNA = experiment: Bioassay 2: RT-qPCR of MOZ target genes in mouse embryonic fibroblasts; conditions: 5 μM
Protocol: (§2) Mouse embryonic fibroblasts are isolated from wild type or Moz heterozygous animals and cultured at 3% oxygen/5% carbon dioxide/92% nitrogen. Cells are plated at a density of 1,020 cells/cm^2 or 2,040 cells/cm^2 or 10,204 cells/cm^2. A reference value for MOZ inhibition is generated through comparison with cells with a complete null mutation of MOZ. The absence of a functional Moz gene leads to senescence in 7-14 days at 3% oxygen.
Cells are plated in triplicate at 2,040 cells/cm^2 in the presence of a test compound. Compounds are tested at 500 nM, 1 μM, 2 μM, 5 μM, 10 μM and 20 μM. Control compounds include those that have a similar structure but show no activity in biochemical assays. […] RT-qPCR is used to assay the levels of MOZ target genes Ink4a, ink4b, Arf, Cdc6, Cdca8, Cdca2, E2f2, Ezh2, Skp2 and Melk.

[2] = system: Eμ-Myc pre-leukemia pre B cells; experiment: Bioassay 7: pre-B cell number dose response, Eμ-Myc
Protocol: (§3) Pre B cells are isolated from bone marrow according to the criterion: cell surface expression of B220, CD19, but not cKit or IgM. Pre-B cells are cultured on OP9 cells with IL7 in the presence of compounds at concentrations from 0.01 μM to 20 μM in vitro for 4 days. Cell number is then enumerated and an IC50 is calculated.

[3] = system: Eμ-Myc pre-leukemia pro-B cells; experiment: Bioassay 5: pro-B cell colony formation in methylcellulose, Eμ-Myc
Protocol: (§4) Pro-B cells are purified by positive selection using antiCD19-magnetic beads and fluorescence activated cell sorting using the criterion: cell surface expression of B220, CD19 and cKit but not IgM. After purification, 25,000 pro-B cells are seeded onto 3.5 cm culture dishes plate containing methylcellulose (MethoCult M3630, STEM CELL technologies) for 7 days. After 7 days culture, colonies in which there were more than 50 cells are counted. Subsequently, 190,000 pro-B cells are replated into methylcellulose for another 7 days of culture, followed by enumeration.

Wild type pre B cells [4] = experiment: Bioassay 6: proliferation curves of pre-B cells on OP9 feeder layer, wild type
From the text: Pre B cells are isolated from bone marrow according to the criterion: cell surface expression of B220, CD19, but not cKit or IgM. Proliferation curves of wild type pre-B cells and Ep-Myc pre-leukemia pre B cells are generated by counting cells cultured on OP9 cell feeder layer in the presence of the growth factor IL-7. Media is changed every two days and cells are passaged every 4 days.

[5] = system: mouse embryonic fibroblasts transfected with control retroviral vector pBABE; experiment: Bioassay 4: cumulative cell counts, control vector pBABE; conditions: 5 μm
Protocol: as §1

Wild type pre B cells [6] = experiment: Bioassay 7: pre-B cell number dose response, wild type; conditions: B-cell, 96 h; wild type Pre B cells; 4 days
Protocol: as §3

[7] = system: Mouse embryonic fibroblasts; experiment: Bioassay 1: cellular senescence of mouse embryonic fibroblasts; conditions: for up regulation of β-galactosidase: […] after plating
Protocol: as §2
Cells are plated in triplicate cultures at 10,204 cells/cm^2 in the presence of a test compound. Compounds are tested at 500 nM, 1 μM, 2 μM, 5 μM, 10 μM and 20 μM. Control compounds include those that have a similar structure but show no activity in biochemical assays. After 48 hours, cells are passaged and counted, then replated at 10,204/cm^2. This procedure is continued for 336 hours. The total number of cells produced at each passage is then calculated and compared between treatment groups. […] Cells are analysed by flow cytometry for the absence of markers of apoptosis by staining with propidium iodide and FITC-conjugated annexin V. The level of DNA damaged is assessed by γH2A.X staining, a marker of DNA strand breaks.

wild type pro-B cells = experiment: Bioassay 5: pro-B cell colony formation in methylcellulose, wild type
Protocol: as §4

SMILES: Cc1cc(-c2ccccc2)cc(C(=O)NNS(=O)(=O)c2ccccc2)c1F [Compound 36]
- cells in G0/G1 (BrdU) (wild type pre-B cells; 1 μM): 54.9
- cells in G2/M (BrdU) (wild type pre-B cells; 1 μM): 5.5
- cells in S (BrdU) (wild type pre-B cells; 1 μM): 32.7
- cells in G0/G1 (wild type pre-B cells; in words): increase in cells in G0/G1
- cells in S-phase (wild type pre-B cells; in words): reduction of cells in S-phase
- Cumulative Cell Counts ([1]; 1 μm, 96 h): 128333.3
- Cumulative Cell Counts ([1]; 1 μm, 336 h): 132000
- Cumulative Cell Counts ([1]; 2.5 μm, 96 h): 141666.7
- Cumulative Cell Counts ([1]; 2.5 μm, 336 h): 94133.33
- Cumulative Cell Counts ([1]; 5 μm, 96 h): 126666.7
- Cumulative Cell Counts ([1]; 5 μm, 336 h): 50940
- cell number in the presence of mutant KRas ([1]; in words): dose dependent decrease in cell number
- CDC6 mRNA % control (Cdc6 mRNA): 65.1%
- pIC50 ([2]; B-cell, 96 h, Eμ-Myc pre-leukemia pre B cells, 4 days): 6.38
- suppression of pre B cell proliferation in cells expressing the cMyc oncogene ([2]; in words): effective in suppression of pre B cell proliferation
- colony number ([3]; 1 μM, Eμ-Myc pre-leukemia pro-B cells, primary colonies): 104.625
- colony number, secondary colony formation ([3]; 1 μM, Eμ-Myc pre-leukemia pro-B cells, secondary colony formation): 9.75
- proliferation and secondary colony formation of cells expressing the oncogene cMyc ([3]; in words): equally effective in inhibiting proliferation and secondary colony formation
- cumulative average cell number (Wild type pre B cells [4]; 1 μM, Day 4): 54333
- cumulative average cell number (Wild type pre B cells [4]; 1 μM, Day 8): 73474
- cumulative average cell number (Wild type pre B cells [4]; 1 μM, Day 12): 15097
- cumulative average cell number (Wild type pre B cells [4]; 5 μM, Day 4): 32555
- cumulative average cell number (Wild type pre B cells [4]; 5 μM, Day 8): 19925
- cumulative average cell number (Wild type pre B cells [4]; 5 μM, Day 12): 0.000
- cumulative average cell number (Wild type pre B cells [4]; 10 μM, Day 4): 26111
- cumulative average cell number (Wild type pre B cells [4]; 10 μM, Day 8): 8192
- cumulative average cell number (Wild type pre B cells [4]; 10 μM, Day 12): 0.000
- proliferation of wild type B cell progenitors (Wild type pre B cells [4]; in words, compared to vehicle): inhibited
- Cumulative Cell Counts ([5]; 96 h): 198333.3
- Cumulative Cell Counts ([5]; 336 h): 226600
- pIC50 (Wild type pre B cells [6]): 6.44
- up regulation of β-galactosidase ([7]; 5 μM): 186%
- up regulation of β-galactosidase ([7]; 10 μM): 195%
- up regulation of β-galactosidase ([7]; 20 μM): 185%
- pIC50 ([7]; Mus musculus, Fibroblast, read-out: IC50 (dose at which 50% senescence occur), Bioassay 1): 5.80
- colony number (wild type pro-B cells; 1 μM, wild type pro-B cells, primary colonies): 161.25
- colony number, secondary colony formation (wild type pro-B cells; 1 μM, wild type pro-B cells, secondary colony formation): 12.25
- colony formation (wild type pro-B cells; in words, compared to vehicle): greatly inhibits colony formation

— patent US10829446B2, “Aryl sulfonohydrazides” (MONASH UNIVERSITY, priority 2015, dated 2020)
